These compounds were tested against hTRPA1 (Homo sapiens (Human), UniProt O75762) (assay: Dose response calcium flux assay (FLIPR), ChanTest hTRPA1-CHO stably transfected cell line). Conditions: CHO-K1 Tet-On human TRPA1 cells, cinnamaldehyde agonist (final 100 uM).
Format: cell-based
Description: IC50 Determinations of Exemplified Compounds Dose Response Assay: Chan Test hTRPA1-CHO Stably Transfected Cell Line
CHO-K1 Tet-On_HOMSA_TRPA1_Clone_20
Chinese Hamster Ovary cells, inducible expression
• Ham's F-12 with 10% tetracycline-free FBS • 1× penicillin-streptomycin • 1× glutamax • 0.01 mg/ml Blasticidin • 0.40 mg/ml Zeocin • The cell line doubling rate was ˜15 hours. […] Experiments were run at 24 hours post induction. Plating Conditions CHOK1/TRPA1 Cells: • Harvested cells with 0.025% trypsin/EDTA. • Resuspended cells in growth media without selection antibiotics. • Measured cell density and diluted to 2.4×10^5 cells/ml in media containing 1 ug/ml Doxycycline Plate 25 ul/well into 384 well black/clear tissue culture-treated plates. • Incubated overnight at 37° C. Calcium Flux Assay: Day of Assay: Reagents: • Replacement Buffer: Hank's Balanced Salt Solution, 20 mM HEPES along with 0.005% BSA and 2× Probenecid • Dye Loading Buffer: Cal-3 NW Calcium dye was prepared by dissolving the contents of one vial with […] Hank's Balanced Salt Solution containing 20 mM HEPES. • Control compounds for CHOK1/TRPA1 cells: AP-18, stock 10 mM, prepare 3.5× compound dilution in a Compound Buffer (HBSS/20 mM HEPES/0.005% BSA)—final concentration 10 uM. • Preparation of Cinnamaldehyde (agonist addition): FW=132.16 • Specific gravity=1.046 gm/cc • 1.32 gm/1.046 gm/cc=1.26 ml of stock • Add 1.74 ml DMSO=3.3 M stock • Working solution 4.5× (final 100 uM in Compound Buffer: HBSS/20 mM HEPES/0.005% BSA) • Compounds dilutions were prepared from 5 or 10 mM stock (100% DMSO): • Adjustments of volumes and concentrations were made at time of titration to reflect desired final assay concentrations. • Compounds were tested at either 20 μM three folds dilution 11 steps out or 30 μM two folds dilution 11 steps out. • 3 μl of diluted compound were transferred into Weidmann 384-well plate in duplicates side-by-side. • Compound plates were resuspended with 100 ul of HBSS/20 mM HEPES/0.005% BSA buffer (Compound Buffer): • column 1A-H: buffer/DMSO (bk) • column 2A-H: AP-18 (control antagonist for CHOK1 TRPA1 cells) • column 1I-P: ATP (control for CHOK1 teton cells) • column 2 I-P: 2APB (control antagonist for CHOK1/TRPM8 cells). Growth media was removed from the cell plates (20 ul) and 20 ul of the Replacement Buffer was added followed by addition of 25 ul of diluted dye. All three steps were performed using a Plate Washer BioTek 407. The plates were then incubated for 30′ at RT.
After incubation, both the cell and compound plates were brought to the FLIPR and 20 ul of the diluted compounds/antagonist/bk were transferred to the cell plates by the FLIPR. Plates were then incubated for 30′ at room temperature. After 30′ incubation, plates were returned to the FLIPR and 20 ul of 4.5× Cinnamaldehyde was added to the cell plates. During the compound addition as well as agonist addition, fluorescence readings were taken simultaneously from all 384 wells of the cell plate every 1.5 seconds. Five readings were taken to establish a stable baseline, then 20 ul of sample was rapidly (30 ul/sec) and simultaneously added to each well of the cell plate. The fluorescence was continuously monitored before, during and after sample/agonist addition for a total elapsed time of 100 seconds (compound addition) and 120 seconds (agonist addition). Responses (increase in peak fluorescence) in each well following agonist addition was determined. The initial fluorescence reading from each well, prior to ligand stimulation, was used a zero baseline value for the data from that well.

Chain of hTRPA1 (O75762 whole entry): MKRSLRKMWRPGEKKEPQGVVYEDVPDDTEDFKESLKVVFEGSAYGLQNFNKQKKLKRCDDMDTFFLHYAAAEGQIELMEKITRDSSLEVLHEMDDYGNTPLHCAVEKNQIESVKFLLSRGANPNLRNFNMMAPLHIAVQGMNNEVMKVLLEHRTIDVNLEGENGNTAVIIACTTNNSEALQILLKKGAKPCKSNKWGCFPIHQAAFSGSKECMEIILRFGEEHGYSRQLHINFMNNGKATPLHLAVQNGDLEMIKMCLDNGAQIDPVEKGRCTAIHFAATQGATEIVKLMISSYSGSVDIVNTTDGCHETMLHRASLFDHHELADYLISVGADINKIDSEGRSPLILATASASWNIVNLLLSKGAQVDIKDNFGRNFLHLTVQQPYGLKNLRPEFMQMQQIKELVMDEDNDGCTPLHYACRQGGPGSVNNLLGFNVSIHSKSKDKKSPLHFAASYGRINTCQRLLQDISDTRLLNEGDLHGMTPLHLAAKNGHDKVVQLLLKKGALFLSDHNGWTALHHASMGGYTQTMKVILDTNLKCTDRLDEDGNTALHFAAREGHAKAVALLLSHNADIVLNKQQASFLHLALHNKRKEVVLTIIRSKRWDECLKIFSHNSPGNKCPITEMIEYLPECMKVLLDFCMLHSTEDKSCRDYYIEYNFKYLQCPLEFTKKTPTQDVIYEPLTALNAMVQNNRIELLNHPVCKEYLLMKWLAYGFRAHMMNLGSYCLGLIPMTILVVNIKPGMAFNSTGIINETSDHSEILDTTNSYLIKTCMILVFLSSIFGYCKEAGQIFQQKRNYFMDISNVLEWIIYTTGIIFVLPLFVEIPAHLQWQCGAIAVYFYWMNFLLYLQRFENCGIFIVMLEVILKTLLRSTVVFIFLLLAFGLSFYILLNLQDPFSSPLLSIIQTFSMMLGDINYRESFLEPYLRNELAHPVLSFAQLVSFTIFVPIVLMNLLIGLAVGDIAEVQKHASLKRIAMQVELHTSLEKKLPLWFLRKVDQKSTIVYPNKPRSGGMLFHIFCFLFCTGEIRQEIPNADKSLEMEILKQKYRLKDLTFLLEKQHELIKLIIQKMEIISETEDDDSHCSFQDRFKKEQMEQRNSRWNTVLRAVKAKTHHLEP

Structure (SMILES) | IC50
O=C(CN(CC1COC1)S(=O)(=O)c1ccc(F)cc1)NCc1cccc(-c2ccc(C(F)(F)F)cc2)c1 [Example 54, 2-[(4-Fluoro-benzenesulfonyl)-oxetan-3-ylmethyl-amino]-N-(4′-trifluoron-3-ylmethyl-amino]-N-(4′-trifluoromethyl-biphenyl-3-ylmethyl)-acetamide] | 1760 nM
CC(C)N(CC(=O)NCc1cc(-c2ccc(C(F)(F)F)cc2)ncn1)S(=O)(=O)c1cccnc1 [Example 56, 2-[Isopropyl-(pyridine-3-sulfonyl)-amino]-N-[6-(4-trifluoromethyl-phenyl)-pyrimidin-4-ylmethyl]-acetamide] | 550 nM
CC(C)N(CC(=O)NCc1cncc(-c2ccc(C(F)(F)F)cc2)c1)S(=O)(=O)c1ccc(F)cc1 [Example 57, 2-[(4-Fluoro-benzenesulfonyl)-isopropyl-amino]-N-[5-(4-trifluoromethyl-phenyl)-pyridin-3-ylmethyl]-acetamide] | 180 nM
CC(C)N(CC(=O)NCc1ccnc(-c2ccc(C(F)(F)F)nc2)c1)S(=O)(=O)c1ccc(F)cc1 [Example 58, 2-[(4-Fluoro-benzenesulfonyl)-isopropyl-amino]-N-(6′-trifluoromethyl-[2,3′]bipyridinyl-4-ylmethyl)-acetamide] | 230 nM
O=C(CN(C1COC1)S(=O)(=O)c1ccc(F)cc1)NCc1cccc(-c2ccc(C(F)(F)F)cc2)c1 [Example 60, 2-[(4-Fluoro-benzenesulfonyl)-oxetan-3-yl-amino]-N-(4′-trifluoromethyl-biphenyl-3-ylmethyl)-acetamide] | 200 nM
CC(C)N(CC(=O)NCc1cc(-c2ccc(C(F)(F)F)cc2)ncn1)S(=O)(=O)c1ccccc1C#N [Example 65, 2-[(2-Cyano-benzenesulfonyl)-isopropyl-amino]-N-[6-(4-trifluoromethyl-phenyl)-pyrimidin-4-ylmethyl]-acetamide] | 3860 nM
CC(C)N(CC(=O)NCc1cccc(-c2ccc(C(F)(F)F)nn2)c1)S(=O)(=O)c1ccc(F)cc1 [Example 66, 2-[(4-Fluoro-benzenesulfonyl)-isopropyl-amino]-N-[3-(6-trifluoromethyl-pyridazin-3-yl)-benzyl]-acetamide] | 170 nM
CC(C)N(CC(=O)NCc1cc(-c2ccc(C(F)(F)F)cc2)ncn1)S(=O)(=O)c1cnccn1 [Example 67, 2-[Isopropyl-(pyrazine-2-sulfonyl)-amino]-N-[6-(4-trifluoromethyl-phenyl)-pyrimidin-4-ylmethyl]-acetamide] | 380 nM
CC(C)N(CC(=O)NCc1cccc(-c2cnc(C(F)(F)F)cn2)c1)S(=O)(=O)c1ccc(Cl)nc1 [Example 72, 2-[(6-Chloro-pyridine-3-sulfonyl)-isopropyl-amino]-N-[3-(5-trifluoromethyl-pyrazin-2-yl)-benzyl]-acetamide] | 233 nM
CC(C)N(CC(=O)NCc1cccc(-c2ccc(C(F)(F)F)nn2)c1)S(=O)(=O)c1ccc(Cl)nc1 [Example 73, 2-[(6-Chloro-pyridine-3-sulfonyl)-isopropyl-amino]-N-[3-(6-trifluoromethyl-pyridazin-3-yl)-benzyl]-acetamide] | 682 nM
CC(C)N(CC(=O)NCc1ccnc(-c2cnc(C(F)(F)F)nc2)c1)S(=O)(=O)c1ccc(F)cc1 [Example 74, 2-[(4-Fluoro-benzenesulfonyl)-isopropyl-amino]-N-[2-(2-trifluoromethyl-pyrimidin-5-yl)-pyridin-4-ylmethyl]-acetamide] | 298 nM

Now those with a lower IC50, led by results:

IC50 | Structure (SMILES)
79 nM | CC(C)N(CC(=O)NCc1cccc(-c2ccc(C(F)(F)F)cn2)c1)S(=O)(=O)c1cccc(F)c1 [Example 50, 2-[(3-Fluoro-benzenesulfonyl)-isopropyl-amino]-N-[3-(5-trifluoromethyl-pyridin-2-yl)-benzyl]-acetamide]
130 nM | CN(C(CO)C(=O)NCc1cccc(-c2ccc(C(F)(F)F)cc2)c1)S(=O)(=O)c1ccc(F)cc1 (stereo not drawn) [Example 51, 2-[(4-Fluoro-benzenesulfonyl)-methyl-amino]-3-hydroxy-N-(4′-trifluoromethyl-biphenyl-3-ylmethyl)-propionamide]
98 nM | COC[C@@H](C(=O)NCc1cccc(-c2ccc(C(F)(F)F)cc2)c1)N(C)S(=O)(=O)c1ccc(F)cc1 [Example 52, (S)-2-[(4-Fluoro-benzenesulfonyl)-methyl-amino]-3-methoxy-N-(4′-trifluoromethyl-biphenyl-3-ylmethyl)-propionamide]
130 nM | CC(C)N(CC(=O)NCc1cc(-c2ccc(C(F)(F)F)nc2)ccn1)S(=O)(=O)c1ccc(F)cc1 [Example 55, 2-[(4-Fluoro-benzenesulfonyl)-isopropyl-amino]-N-(6-trifluoromethyl-[3,4′]bipyridinyl-2′-ylmethyl)-acetamide]
99 nM | CC(C)N(CC(=O)NCc1ccnc(-c2ccc(C(F)(F)F)cc2)c1)S(=O)(=O)c1cccc(F)c1 [Example 59, 2-[(3-Fluoro-benzenesulfonyl)-isopropyl-amino]-N-[2-(4-trifluoromethyl-phenyl)-pyridin-4-ylmethyl]-acetamide]
140 nM | CC(C)N(CC(=O)NCc1cc(-c2ccc(C(F)(F)F)nc2)ncn1)S(=O)(=O)c1ccc(F)cc1 [Example 61, 2-[(4-Fluoro-benzenesulfonyl)-isopropyl-amino]-N-[6-(6-trifluoromethyl-pyridin-3-yl)-pyrimidin-4-ylmethyl]-acetamide]
38 nM | CC(C)N(CC(=O)NCc1cc(F)cc(-c2ccc(C(F)(F)F)nc2)c1)S(=O)(=O)c1ccc(F)cc1 [Example 63, 2-[(4-Fluoro-benzenesulfonyl)-isopropyl-amino]-N-[3-fluoro-5-(6-trifluoromethyl-pyridin-3-yl)-benzyl]-acetamide]
83 nM | CC(C)N(CC(=O)NCc1cc(-c2ccc(C(F)(F)F)cc2)ncn1)S(=O)(=O)c1ccc(Cl)nc1 [Example 64, 2-[(6-Chloro-pyridine-3-sulfonyl)-isopropyl-amino]-N-[6-(4-trifluoromethyl-phenyl)-pyrimidin-4-ylmethyl]-acetamide]
47 nM | CC(C)N(CC(=O)NCc1cccc(-c2cnc(C(F)(F)F)nc2)c1)S(=O)(=O)c1ccc(F)cc1 [Example 68, 2-[(4-Fluoro-benzenesulfonyl)-isopropyl-amino]-N-[3-(2-trifluoromethyl-pyrimidin-5-yl)-benzyl]-acetamide]
19 nM | CC(C)N(CC(=O)NCc1cc(-c2ccc(C(F)(F)F)cc2)ncn1)S(=O)(=O)c1ccc(F)c(F)c1 [Example 69, 2-[(3,4-Difluoro-benzenesulfonyl)-isopropyl-amino]-N-[6-(4-trifluoromethyl-phenyl)-pyrimidin-4-ylmethyl]-acetamide]
48 nM | CC(C)N(CC(=O)NCc1ccc(F)c(-c2cnc(C(F)(F)F)nc2)c1)S(=O)(=O)c1ccc(F)cc1 [Example 70, 2-[(4-Fluoro-benzenesulfonyl)-isopropyl-amino]-N-[4-fluoro-3-(2-trifluoromethyl-pyrimidin-5-yl)-benzyl]-acetamide]
79 nM | CC(C)N(CC(=O)NCc1cccc(-c2cnc(C(F)(F)F)cn2)c1)S(=O)(=O)c1ccc(F)cc1 [Example 71, 2-[(4-Fluoro-benzenesulfonyl)-isopropyl-amino]-N-[3-(5-trifluoromethyl-pyrazin-2-yl)-benzyl]-acetamide]
25 nM | CC(C)N(CC(=O)NCc1cc(-c2ccc(C(F)(F)F)cc2)ncn1)S(=O)(=O)c1ccc(Cl)s1 [Example 75, 2-[(5-Chloro-thiophene-2-sulfonyl)-isopropyl-amino]-N-[6-(4-trifluoromethyl-phenyl)-pyrimidin-4-ylmethyl]-acetamide]
